Source: US8026233B2, “P38 inhibitors and methods of use thereof” (Array BioPharma Inc., priority 2006, dated 2011)

What was measured:
Conditions in all cases: stated in words only
bioavailability = assay type: in vivo
first pass metabolism = experiment: first pass metabolism
[1] = molecular target: p-glycoprotein (PGP) transporter (Homo sapiens, UniProt P08183); experiment: affinity for p-glycoprotein transporter
hERG channel = hERG channel (Homo sapiens, UniProt Q12809); experiment: activity in the hERG channel
hERG channel, sequence (Q12809 whole entry): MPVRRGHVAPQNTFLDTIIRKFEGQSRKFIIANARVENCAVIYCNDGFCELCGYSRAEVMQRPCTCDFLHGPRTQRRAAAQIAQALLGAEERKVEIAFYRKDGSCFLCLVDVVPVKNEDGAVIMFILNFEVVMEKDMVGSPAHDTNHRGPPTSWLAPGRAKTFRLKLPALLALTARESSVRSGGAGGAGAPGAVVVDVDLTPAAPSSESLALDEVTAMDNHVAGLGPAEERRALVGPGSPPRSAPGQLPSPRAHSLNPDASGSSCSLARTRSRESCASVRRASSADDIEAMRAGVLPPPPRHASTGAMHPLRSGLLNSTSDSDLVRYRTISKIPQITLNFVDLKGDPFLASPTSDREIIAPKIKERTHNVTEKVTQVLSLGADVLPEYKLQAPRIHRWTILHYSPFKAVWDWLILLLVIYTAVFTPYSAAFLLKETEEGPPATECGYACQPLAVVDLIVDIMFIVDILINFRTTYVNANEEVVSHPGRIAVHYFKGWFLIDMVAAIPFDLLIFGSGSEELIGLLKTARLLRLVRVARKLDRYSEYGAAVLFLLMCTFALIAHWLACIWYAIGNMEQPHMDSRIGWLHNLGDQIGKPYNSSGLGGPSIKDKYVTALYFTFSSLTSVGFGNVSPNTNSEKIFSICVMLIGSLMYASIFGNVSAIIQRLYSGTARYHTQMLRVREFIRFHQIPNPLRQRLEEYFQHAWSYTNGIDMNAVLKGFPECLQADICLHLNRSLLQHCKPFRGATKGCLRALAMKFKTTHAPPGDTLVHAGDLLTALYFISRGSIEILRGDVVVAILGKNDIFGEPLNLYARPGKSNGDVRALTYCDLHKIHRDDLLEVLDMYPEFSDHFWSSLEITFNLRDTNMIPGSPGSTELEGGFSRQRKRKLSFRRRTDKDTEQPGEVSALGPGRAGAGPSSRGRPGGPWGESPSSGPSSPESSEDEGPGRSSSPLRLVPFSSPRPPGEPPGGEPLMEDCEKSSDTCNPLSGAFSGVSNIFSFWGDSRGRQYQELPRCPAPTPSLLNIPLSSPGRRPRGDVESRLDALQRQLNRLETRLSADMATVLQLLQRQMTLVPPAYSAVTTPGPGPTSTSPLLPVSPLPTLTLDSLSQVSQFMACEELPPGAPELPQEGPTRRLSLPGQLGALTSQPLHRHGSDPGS

p-glycoprotein (PGP) transporter, sequence (P08183 whole entry): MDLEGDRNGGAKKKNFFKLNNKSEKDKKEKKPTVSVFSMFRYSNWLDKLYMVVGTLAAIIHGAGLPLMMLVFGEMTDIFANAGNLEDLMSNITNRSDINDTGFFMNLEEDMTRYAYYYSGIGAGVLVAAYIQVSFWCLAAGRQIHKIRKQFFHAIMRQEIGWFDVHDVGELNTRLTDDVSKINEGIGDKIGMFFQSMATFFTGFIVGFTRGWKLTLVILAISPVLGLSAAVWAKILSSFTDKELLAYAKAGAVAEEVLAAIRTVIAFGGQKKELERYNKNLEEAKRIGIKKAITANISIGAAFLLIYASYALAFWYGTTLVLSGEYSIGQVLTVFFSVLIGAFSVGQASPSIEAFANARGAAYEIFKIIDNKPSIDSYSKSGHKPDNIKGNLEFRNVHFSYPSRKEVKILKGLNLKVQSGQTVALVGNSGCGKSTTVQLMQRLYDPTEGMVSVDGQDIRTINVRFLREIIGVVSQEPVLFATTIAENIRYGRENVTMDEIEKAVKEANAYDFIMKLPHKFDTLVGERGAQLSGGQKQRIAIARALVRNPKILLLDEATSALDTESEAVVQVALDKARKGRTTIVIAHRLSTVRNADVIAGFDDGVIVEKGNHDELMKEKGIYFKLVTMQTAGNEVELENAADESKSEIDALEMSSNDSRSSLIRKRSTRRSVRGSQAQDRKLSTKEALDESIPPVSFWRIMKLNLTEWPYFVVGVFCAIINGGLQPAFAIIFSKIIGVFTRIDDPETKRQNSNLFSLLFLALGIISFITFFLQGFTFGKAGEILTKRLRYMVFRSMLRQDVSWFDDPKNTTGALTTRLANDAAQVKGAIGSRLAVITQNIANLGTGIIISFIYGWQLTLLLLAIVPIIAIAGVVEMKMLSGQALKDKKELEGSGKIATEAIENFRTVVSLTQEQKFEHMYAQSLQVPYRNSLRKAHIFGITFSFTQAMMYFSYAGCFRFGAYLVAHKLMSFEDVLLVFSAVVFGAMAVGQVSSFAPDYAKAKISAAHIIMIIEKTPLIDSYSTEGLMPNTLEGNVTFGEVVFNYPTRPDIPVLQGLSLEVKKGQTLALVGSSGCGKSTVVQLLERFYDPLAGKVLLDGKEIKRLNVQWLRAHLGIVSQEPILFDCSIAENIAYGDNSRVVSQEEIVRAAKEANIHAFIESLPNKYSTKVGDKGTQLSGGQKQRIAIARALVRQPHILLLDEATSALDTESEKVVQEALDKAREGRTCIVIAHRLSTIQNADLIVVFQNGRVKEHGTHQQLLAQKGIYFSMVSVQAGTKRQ

bioavailability (bioavailability): relatively good | first pass metabolism (first pass metabolism): relatively low | affinity for p-glycoprotein (PGP) transporter (which affects cell permeability) [1]: low affinity
SMILES: CC(C)(F)Cn1ncc2cc(Oc3ccc(F)cc3F)c(C(=O)N[C@H]3CCNC3=O)cc21 [Example 27, (S)-5-(2,4-difluorophenoxy)-1-(2-fluoro-2-methylpropyl)-N-(2-oxopyrrolidin-3-yl)-1H-indazole-6-carboxamide]
activity in the hERG channel (a predictor for cardiac side effects) (hERG channel): low activity
